Results as given in ChEMBL document CHEMBL1201862, “PubChem BioAssay data set” (2004).
Values belong to the molecule of their own block, whether it stands above or below them. Activity calls are given as the source filed them.

How the values were obtained:
[1] = Vero cell cytotoxicity, dose response, cytotoxicity control for Vif-APOBEC3G degradation inhibitor project, Vero cells (AID 1117358); type: functional; details: Human immunodeficiency virus 1, Vero
[2] = biological target: T1, Calpain-2 catalytic subunit (Sus scrofa, UniProt P43367); experiment: pig calpain II inhibitor potency, dose response, biochemical, fluorogenic peptide substrate (AID 1420); type: functional
T1 sequence (P43367 whole entry): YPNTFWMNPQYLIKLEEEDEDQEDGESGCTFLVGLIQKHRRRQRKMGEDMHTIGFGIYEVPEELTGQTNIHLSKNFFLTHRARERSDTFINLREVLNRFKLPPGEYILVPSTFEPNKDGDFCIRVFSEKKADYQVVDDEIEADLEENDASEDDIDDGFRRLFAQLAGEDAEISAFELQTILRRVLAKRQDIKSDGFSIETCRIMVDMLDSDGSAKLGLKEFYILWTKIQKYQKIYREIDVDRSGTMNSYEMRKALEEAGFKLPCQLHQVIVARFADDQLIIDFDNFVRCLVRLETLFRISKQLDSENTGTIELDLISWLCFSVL

[3] = biological target: T2, Aminopeptidase N (Plasmodium falciparum FcB1/Columbia, UniProt O96935); experiment: P. falciparum M1AAP inhibitors, biochemical, fluorogenic H-Leu-NHMec substrate, 1536-well (AID 1445); design: species or system Plasmodium falciparum 3D7, 3D7
T2 sequence (O96935 whole entry): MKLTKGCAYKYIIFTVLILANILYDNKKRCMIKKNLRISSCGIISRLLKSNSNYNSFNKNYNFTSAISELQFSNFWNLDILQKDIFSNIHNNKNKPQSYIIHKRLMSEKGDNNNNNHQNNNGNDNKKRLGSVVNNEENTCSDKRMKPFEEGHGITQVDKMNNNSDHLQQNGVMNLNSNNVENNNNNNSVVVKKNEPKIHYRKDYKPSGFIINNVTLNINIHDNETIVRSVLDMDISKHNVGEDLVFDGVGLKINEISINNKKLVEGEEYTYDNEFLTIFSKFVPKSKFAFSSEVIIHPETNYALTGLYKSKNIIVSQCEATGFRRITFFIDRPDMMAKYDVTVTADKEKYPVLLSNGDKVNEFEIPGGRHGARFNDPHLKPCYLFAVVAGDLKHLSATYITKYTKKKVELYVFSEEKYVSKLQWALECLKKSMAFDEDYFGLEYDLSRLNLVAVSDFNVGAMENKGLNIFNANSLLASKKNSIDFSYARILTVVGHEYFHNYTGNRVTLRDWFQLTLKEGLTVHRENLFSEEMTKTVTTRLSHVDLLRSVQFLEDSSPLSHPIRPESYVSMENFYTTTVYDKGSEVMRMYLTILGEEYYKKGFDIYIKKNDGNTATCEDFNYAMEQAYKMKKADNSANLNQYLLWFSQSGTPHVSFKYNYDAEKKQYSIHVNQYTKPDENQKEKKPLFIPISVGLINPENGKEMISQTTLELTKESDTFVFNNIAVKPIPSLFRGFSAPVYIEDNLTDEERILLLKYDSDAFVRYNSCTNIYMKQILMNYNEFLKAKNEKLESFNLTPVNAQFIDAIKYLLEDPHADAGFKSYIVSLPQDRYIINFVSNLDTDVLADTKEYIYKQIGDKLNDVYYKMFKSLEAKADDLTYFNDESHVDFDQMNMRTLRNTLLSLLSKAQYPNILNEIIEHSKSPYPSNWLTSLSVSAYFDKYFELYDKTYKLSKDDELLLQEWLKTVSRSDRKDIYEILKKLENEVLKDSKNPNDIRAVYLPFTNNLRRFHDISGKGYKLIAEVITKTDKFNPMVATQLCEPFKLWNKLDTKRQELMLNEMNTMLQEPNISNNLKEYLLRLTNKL

[4] = biological target: T3, Mannose-6-phosphate isomerase (Homo sapiens, UniProt P34949); experiment: inhibitors of human PMI, primary screen, biochemical, fluorescence intensity, coupled assay (AID 1209)
T3 sequence (P34949 whole entry): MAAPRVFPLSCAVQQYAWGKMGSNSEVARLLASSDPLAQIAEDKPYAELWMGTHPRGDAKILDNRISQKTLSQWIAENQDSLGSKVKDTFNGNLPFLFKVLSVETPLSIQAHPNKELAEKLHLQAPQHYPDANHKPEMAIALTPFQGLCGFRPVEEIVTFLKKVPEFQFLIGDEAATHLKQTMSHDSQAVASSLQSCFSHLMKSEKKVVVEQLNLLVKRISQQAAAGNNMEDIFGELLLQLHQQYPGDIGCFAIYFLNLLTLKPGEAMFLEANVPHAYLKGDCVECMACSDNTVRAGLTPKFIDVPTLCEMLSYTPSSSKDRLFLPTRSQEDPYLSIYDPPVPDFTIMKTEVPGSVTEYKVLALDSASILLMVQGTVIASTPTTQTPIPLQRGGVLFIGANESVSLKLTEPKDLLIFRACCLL

[5] = NIH-3T3 fibroblast cytotoxicity, dose response, cytotoxicity control, cell-based, fluorescence, Alamar Blue, secondary assay (AID 2327); type: functional;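 further: NIH-3T3 mouse fibroblasts cultured with fluconazole at 8 µg/mL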
[6] = biological target: T4, Histone-lysine N-methyltransferase NSD2 (Homo sapiens, UniProt O96028); type: biochemical
T4 sequence (O96028 whole entry): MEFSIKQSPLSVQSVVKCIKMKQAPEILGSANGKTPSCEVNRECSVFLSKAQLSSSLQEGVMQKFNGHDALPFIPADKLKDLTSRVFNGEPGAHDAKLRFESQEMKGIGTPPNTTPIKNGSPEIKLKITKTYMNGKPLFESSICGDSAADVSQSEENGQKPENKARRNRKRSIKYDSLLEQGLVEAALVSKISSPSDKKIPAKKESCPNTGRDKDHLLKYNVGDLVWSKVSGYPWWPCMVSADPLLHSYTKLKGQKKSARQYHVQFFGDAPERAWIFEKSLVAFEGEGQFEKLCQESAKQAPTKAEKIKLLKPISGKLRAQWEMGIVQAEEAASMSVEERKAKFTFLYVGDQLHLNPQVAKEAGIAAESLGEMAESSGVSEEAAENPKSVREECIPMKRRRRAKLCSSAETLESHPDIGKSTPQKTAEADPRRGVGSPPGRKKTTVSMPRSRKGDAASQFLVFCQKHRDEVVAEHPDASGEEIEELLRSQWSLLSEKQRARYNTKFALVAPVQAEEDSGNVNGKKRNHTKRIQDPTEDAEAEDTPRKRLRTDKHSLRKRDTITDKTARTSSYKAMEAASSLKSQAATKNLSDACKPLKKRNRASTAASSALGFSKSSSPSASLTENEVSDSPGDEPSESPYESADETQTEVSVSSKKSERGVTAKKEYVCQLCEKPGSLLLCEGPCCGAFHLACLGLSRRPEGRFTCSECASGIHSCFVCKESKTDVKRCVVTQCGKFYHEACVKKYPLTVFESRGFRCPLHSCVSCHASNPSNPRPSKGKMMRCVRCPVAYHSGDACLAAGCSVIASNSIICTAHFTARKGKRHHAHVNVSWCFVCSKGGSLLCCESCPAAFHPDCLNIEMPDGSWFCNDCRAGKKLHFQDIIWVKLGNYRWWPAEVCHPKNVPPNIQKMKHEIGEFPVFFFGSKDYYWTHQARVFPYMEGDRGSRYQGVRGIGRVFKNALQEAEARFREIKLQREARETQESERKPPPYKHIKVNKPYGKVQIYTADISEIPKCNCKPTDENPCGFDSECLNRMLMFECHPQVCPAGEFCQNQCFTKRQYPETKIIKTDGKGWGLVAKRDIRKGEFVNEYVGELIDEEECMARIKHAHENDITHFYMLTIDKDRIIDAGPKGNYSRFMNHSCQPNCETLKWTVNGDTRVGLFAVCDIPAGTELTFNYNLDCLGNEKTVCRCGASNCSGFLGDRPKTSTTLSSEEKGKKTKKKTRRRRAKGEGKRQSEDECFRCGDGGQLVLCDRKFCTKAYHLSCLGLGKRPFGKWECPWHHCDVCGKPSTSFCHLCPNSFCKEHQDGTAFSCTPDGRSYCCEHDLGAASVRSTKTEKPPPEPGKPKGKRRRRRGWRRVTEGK

[7] = biological target: T5, Caspase-6 (Homo sapiens, UniProt P55212); experiment: human caspase-6 inhibitors, dose response, biochemical, VEID-R110 fluorescence, cherry-pick (AID 720632)
T5 sequence (P55212 whole entry): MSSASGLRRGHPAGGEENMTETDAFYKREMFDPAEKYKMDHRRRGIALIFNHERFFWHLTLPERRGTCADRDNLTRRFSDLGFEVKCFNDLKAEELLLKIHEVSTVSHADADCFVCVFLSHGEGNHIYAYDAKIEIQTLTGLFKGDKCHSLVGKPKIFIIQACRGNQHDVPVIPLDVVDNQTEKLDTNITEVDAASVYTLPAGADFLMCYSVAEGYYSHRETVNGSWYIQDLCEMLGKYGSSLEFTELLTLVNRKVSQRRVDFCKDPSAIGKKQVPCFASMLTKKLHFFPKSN

[8] = biological target: Albumin (Bos taurus, UniProt P02769); experiment: Counterscreen for inhibitors of T-cell receptor (TCR)-CD3 interaction: Fluorescence-based biochemical high throughput dose response assay to identify inhibitors of T-cell receptor (TCR)-CD3 interaction using a TAMRA-labeled BSA probe.; type: functional
Sequence of Albumin (P02769 whole entry): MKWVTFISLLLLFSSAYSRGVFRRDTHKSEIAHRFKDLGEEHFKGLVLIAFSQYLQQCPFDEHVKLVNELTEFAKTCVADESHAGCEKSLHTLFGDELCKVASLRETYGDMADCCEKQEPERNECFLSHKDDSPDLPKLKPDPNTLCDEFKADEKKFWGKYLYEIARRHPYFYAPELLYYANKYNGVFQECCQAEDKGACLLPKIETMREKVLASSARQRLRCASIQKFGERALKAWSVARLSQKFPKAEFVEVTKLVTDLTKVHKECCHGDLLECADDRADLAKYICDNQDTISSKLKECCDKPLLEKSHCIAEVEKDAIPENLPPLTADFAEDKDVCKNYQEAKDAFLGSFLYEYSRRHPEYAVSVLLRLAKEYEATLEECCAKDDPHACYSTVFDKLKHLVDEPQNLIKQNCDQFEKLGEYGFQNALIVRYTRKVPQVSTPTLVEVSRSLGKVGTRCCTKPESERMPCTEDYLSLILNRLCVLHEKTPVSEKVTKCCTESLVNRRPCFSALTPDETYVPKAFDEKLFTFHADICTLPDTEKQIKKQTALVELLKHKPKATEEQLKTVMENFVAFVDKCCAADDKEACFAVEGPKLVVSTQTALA

[9] = biological target: Large T antigen (Simian virus 40, UniProt P03070); type: functional, Betapolyomavirus macacae;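 further: Confirmatory-stage PubChem screen for compounds that inhibit SV40 T antigen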
Sequence of Large T antigen (P03070 whole entry): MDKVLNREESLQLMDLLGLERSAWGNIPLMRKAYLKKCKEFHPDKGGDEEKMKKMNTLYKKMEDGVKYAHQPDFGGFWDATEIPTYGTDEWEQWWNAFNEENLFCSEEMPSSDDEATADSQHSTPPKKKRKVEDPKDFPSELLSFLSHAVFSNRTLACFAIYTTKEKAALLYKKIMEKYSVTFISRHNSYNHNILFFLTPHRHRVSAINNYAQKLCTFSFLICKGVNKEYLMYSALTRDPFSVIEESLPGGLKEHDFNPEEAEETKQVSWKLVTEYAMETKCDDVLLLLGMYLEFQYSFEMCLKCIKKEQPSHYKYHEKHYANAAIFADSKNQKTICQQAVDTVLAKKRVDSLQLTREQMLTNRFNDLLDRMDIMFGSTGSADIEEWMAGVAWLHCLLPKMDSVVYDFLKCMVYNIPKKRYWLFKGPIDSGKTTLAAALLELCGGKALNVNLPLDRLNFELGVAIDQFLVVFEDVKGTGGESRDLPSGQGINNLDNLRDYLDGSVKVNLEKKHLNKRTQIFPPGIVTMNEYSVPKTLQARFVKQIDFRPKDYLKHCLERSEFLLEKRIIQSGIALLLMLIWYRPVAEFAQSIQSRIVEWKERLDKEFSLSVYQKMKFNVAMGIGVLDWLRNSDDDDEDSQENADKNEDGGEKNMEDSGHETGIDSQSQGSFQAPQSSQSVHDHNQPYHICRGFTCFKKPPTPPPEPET

[10] = C. albicans growth with fluconazole, confirmation, fluorescence, retest (AID 2467); type: functional, cell-based
[11] = biological target: E3 ubiquitin-protein ligase UHRF1 (Homo sapiens, UniProt Q96T88); experiment: Counterscreen for inhibitors of 5-meCpG-binding domain protein 2 (MBD2): TRFRET-based biochemical high throughput dose response assay to identify inhibitors of binding of ubiquitin-like with PHD and ring finger domains 1 (UHRF1) to methylated oligonucleotide.
Sequence of E3 ubiquitin-protein ligase UHRF1 (Q96T88 whole entry, the tested form may be a part): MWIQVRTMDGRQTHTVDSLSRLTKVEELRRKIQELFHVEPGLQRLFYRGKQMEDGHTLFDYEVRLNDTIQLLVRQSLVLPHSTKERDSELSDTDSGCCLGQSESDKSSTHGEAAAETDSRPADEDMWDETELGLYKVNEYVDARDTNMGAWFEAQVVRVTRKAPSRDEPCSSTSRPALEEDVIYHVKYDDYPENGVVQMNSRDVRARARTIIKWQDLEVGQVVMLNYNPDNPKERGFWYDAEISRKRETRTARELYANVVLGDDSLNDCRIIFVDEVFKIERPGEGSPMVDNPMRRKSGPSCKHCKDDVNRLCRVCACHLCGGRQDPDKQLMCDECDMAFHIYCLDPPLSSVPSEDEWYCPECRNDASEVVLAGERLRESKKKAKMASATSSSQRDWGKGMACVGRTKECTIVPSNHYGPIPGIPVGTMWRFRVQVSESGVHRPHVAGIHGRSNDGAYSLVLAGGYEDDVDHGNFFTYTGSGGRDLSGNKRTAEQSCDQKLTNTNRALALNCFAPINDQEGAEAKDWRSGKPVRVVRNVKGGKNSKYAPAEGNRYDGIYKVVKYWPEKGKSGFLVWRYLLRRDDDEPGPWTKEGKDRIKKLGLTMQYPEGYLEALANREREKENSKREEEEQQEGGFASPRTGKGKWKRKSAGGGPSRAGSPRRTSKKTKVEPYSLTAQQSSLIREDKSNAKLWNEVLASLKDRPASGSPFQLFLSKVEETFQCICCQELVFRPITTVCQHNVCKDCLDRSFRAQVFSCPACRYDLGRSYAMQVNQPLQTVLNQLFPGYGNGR

[12] = biological target: Induced myeloid leukemia cell differentiation protein Mcl-1 (Homo sapiens, UniProt Q07820); type: functional
Sequence of Induced myeloid leukemia cell differentiation protein Mcl-1 (Q07820 whole entry): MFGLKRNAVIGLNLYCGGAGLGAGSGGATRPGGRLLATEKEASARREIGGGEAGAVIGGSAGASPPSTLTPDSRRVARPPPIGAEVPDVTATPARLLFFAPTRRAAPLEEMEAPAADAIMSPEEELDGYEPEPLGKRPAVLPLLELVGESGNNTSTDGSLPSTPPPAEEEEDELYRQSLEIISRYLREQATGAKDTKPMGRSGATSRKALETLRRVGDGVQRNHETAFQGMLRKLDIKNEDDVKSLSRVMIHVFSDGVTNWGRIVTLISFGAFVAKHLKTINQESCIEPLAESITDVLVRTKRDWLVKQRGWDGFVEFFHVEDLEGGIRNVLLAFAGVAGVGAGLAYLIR

[13] = biological target: Paired box protein Pax-8 (Homo sapiens, UniProt Q06710); experiment: inhibitors of PAX8-driven TPO luciferase reporter, dose response, RMG-I cells, cherry-pick (AID 687027); type: functional, cell-based;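 further: luciferase reporter driven by Pax8 target thyroperoxidase promoter measured by SteadyGlo luminescence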
Sequence of Paired box protein Pax-8 (Q06710 whole entry): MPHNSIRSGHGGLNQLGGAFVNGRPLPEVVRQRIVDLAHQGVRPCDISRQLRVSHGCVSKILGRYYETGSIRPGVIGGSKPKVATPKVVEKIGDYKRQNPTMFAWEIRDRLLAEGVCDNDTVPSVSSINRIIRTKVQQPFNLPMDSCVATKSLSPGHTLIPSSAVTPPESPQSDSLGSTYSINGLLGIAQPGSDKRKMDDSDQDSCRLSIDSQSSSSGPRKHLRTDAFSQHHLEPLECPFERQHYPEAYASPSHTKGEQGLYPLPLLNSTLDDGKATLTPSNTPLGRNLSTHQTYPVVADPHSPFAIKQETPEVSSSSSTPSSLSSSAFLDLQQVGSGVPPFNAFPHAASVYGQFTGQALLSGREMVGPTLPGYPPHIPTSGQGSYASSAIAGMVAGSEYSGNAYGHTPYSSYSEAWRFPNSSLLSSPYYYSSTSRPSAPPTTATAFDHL

[14] = A549 cell cytotoxicity, dose response, cytotoxicity control, 24 h, CellTiter-Glo luminescence, cherry-picks (AID 1053115); type: functional, cell-based; details: A549, 24 h
[15] = HEK293T cytotoxicity, dose response, cytotoxicity control for miR-122 modulator project, cell-based, activator set, cherry-pick (AID 720690); type: functional;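 further: HEK293T human cells scored for general mammalian cytotoxicity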
[16] = NIH:OVCAR-3 ovarian cancer cell cytotoxicity, dose response, PAX8 inhibitor project, plate reader, dry powder samples (AID 743044); type: functional, cell-based
[17] = cytotoxicity in OVCAR8 ovarian cancer cells, dose response, PAX8 project, cell-based, plate reader, dry powder samples (AID 743197); type: functional; details: OVCAR-8
[18] = A549 cell cytotoxicity, dose response, CellTiter-Glo luminescence, dry powder, set 17 (AID 1117284); type: functional, cell-based

IC50 [2]: 6.39 µM (not active)
Structure (SMILES): Cc1ccc(Cl)cc1N1CCN(C(=O)Cc2cn(C)c3ccccc23)CC1
CC50 [1]: > 40 µM (active)

Structure (SMILES): COc1ccc(/C=N/NC(=O)c2cc(O)c(O)c(O)c2)cc1Cn1cc([N+](=O)[O-])cn1
IC50 [3]: 92.6 µM (active) | IC50 [4]: 12 µM (active) | EC50 [5]: 30 µM (active) | AC50 [6]: 5.22 µM (active) | AC50 [7]: 0.873 µM (active) | IC50 [8]: > 94.1 µM (inactive) | IC50 [9]: 0.99 µM (active) | EC50 [10]: 3.25 µM (active) | IC50 [11]: > 43.8 µM (inactive) | IC50 [12]: 4.31 µM (active)

Structure (SMILES): C[C@@H](O)C#Cc1ccc2c(c1)O[C@H](CN(C)Cc1ccc(-c3ccccc3)cc1)[C@@H](C)CN([C@@H](C)CO)S2(=O)=O
AC50 [13]: 4.84 µM (active) | AC50 [14]: 51.8 µM (active) | AC50 [15]: 19.4 µM (active) | AC50 [16]: 50.2 µM (active) | AC50 [17]: > 70 µM (inactive) | AC50 [18]: 28.6 µM (active)
